Assay results taken from patent US20170152239A1, “BENZAMIDE AND HETEROBENZAMIDE COMPOUNDS” (PFIZER INC., priority 2012, published 2017).

Assays:
Assay type in all cases: biochemical
[1] = target: WT EZH2 (EZH2 4 protein complex: EZH2, EED, SUZ12, RbAp48) (Homo sapiens, UniProt O75530+Q09028+Q15022+Q15910); assay: WT EZH2 nucleosome assay; details: nucleosome assay, 5 nM EZH2 4-protein complex, 1.5 μM SAM; read-out: WT EZH2 IC50
Procedure, shortened: (§1)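 IC50 values come from 4-parameter fits of 11-point dose responses, with % effect also given at 20 μM. Reactions held HeLa oligonucleosomes (25 μg/mL), rH1 (50 nM), 1.5 μM tritiated SAM and 5 nM enzyme complex at pH 8.5 Tris/DTT/Tween; stopped by TCA after 60 min, filtered and scintillation-counted.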

[2] = target: WT EZH2 (EZH2 4 protein complex: EZH2, EED, SUZ12, RbAp48) (Homo sapiens, UniProt Q15910); assay: WT EZH2 nucleosome assay; details: compound at 20 μM; nucleosome assay
Procedure, shortened: as §1

[3] = target: EZH2PRC2 mutant Y641N (Homo sapiens, UniProt Q15910, Y641N); assay: EZH2PRC2 mutant Y641N nucleosome assay; details: read-out: EZH2PCR2 Mutant Y641N IC50
Experimental: Nucleosome Assay Protocol:
A. Compound preparation • 1. Prepare 10 mM stock solutions in 100% DMSO from solid material • 2. Serial dilute 10 mM compound stocks either 2 or 3-fold in 100% DMSO to generate compounds for 11 point dose response
B. Reagent preparation • 1. Prepare 1× assay buffer containing 100 mM Tris pH 8.5, 4 mM DTT and 0.01% Tween-20 • 2. Dilute purified HeLA oligonucleosomes and recombinant histone H1 (New England Biolabs) in assay buffer to 1.67×. • 3. Dilute EZH2 4 protein complex (EZH2, EED, SUZ12, RbAp48) to 3.5× in assay buffer • 4. Prepare 10×^3H SAM solution in assay buffer using 0.94 μCi/well of radioactive SAM (Perkin Elmer) and sufficient non-labeled SAM (Sigma) for 1.5 μM final concentration. • 5. Dilute TCA to 20% in DI water
C. Enzyme reaction • 1. Final reaction conditions are 5 nM EZH2 4-protein complex, 1.5 μM SAM, 25 μg/mL oligonucleosomes, 50 nM rH1 in a 50 μl reaction volume. • 2. Add 1 μl of diluted compound to the assay plate (96-well V-bottom polypropylene plates) or 1 μl of DMSO for control wells. • 3. Add 30 μl of nucleosomes to the assay plate • 4. Add 14 μl of EZH2 4 protein complex to the assay plate • 5. Add 5 μl of ^3H SAM to start the reaction. • 6. Stop the reaction after 60 minutes with the addition of 100 μl of 20% TCA • 7. Transfer 150 μl of quenched reaction into a prepared filterplate (Millipore #MSIPN4B10) • 8. Apply vacuum to the filterplate to filter the reaction mix through the membrane. • 9. Wash the filterplate with 8×200 μl of PBS, blot dry and dry in an oven for 30 minutes • 10. Add 50 μl of microscint-20 scintillation fluid (Perkin Elmer) to each well, wait 30 minutes and count on a liquid scintillation counter.
D. Data analysis • 1. IC50 values were determined by fitting the data to a 4-parameter IC50 equation using proprietary curve fitting software.
Wild type (WT) EZH2% Effect at 20 μM and IC50 values (μM) generated in WT EZH2 or EZH2PRC2 mutant Y641N nucleosome assays are provided in Table 3 below. A blank entry in the table indicates the data was not generated in that assay.

Sequence of EZH2PRC2 mutant Y641N (Q15910 whole entry Y641N): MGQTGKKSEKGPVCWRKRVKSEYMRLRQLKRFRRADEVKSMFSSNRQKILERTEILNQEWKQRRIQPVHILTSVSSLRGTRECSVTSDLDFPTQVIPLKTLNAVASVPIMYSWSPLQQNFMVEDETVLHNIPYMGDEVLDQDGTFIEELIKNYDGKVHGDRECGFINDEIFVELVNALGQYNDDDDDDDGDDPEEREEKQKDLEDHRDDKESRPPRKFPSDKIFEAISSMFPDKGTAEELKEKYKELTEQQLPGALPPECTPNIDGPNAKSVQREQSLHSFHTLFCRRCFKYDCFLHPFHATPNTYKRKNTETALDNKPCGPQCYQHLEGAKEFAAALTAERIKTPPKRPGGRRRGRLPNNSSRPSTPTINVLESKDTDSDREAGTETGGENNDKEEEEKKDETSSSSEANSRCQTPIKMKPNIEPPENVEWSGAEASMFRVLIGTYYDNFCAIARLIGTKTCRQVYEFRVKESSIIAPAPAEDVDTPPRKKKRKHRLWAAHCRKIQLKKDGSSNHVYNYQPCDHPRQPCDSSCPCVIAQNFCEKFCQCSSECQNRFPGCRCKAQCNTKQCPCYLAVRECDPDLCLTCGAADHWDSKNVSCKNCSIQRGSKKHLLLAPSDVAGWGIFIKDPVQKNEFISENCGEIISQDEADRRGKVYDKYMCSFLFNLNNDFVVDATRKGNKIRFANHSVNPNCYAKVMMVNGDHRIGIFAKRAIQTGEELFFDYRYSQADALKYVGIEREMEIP
Sequence of EZH2PRC2 mutant Y641N (O75530 whole entry partner): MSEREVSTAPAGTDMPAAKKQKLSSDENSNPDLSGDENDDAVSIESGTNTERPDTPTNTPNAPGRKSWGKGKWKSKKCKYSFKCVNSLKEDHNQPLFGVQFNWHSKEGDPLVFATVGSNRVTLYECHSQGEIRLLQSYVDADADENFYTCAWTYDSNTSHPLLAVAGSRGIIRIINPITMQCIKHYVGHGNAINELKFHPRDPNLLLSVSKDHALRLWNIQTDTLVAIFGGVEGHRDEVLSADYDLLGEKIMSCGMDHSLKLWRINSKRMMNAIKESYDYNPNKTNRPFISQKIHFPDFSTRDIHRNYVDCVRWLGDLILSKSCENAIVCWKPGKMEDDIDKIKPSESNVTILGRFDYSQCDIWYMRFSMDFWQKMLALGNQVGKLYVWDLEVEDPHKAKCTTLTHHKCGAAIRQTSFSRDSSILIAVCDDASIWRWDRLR
Sequence of EZH2PRC2 mutant Y641N (Q15022 whole entry partner): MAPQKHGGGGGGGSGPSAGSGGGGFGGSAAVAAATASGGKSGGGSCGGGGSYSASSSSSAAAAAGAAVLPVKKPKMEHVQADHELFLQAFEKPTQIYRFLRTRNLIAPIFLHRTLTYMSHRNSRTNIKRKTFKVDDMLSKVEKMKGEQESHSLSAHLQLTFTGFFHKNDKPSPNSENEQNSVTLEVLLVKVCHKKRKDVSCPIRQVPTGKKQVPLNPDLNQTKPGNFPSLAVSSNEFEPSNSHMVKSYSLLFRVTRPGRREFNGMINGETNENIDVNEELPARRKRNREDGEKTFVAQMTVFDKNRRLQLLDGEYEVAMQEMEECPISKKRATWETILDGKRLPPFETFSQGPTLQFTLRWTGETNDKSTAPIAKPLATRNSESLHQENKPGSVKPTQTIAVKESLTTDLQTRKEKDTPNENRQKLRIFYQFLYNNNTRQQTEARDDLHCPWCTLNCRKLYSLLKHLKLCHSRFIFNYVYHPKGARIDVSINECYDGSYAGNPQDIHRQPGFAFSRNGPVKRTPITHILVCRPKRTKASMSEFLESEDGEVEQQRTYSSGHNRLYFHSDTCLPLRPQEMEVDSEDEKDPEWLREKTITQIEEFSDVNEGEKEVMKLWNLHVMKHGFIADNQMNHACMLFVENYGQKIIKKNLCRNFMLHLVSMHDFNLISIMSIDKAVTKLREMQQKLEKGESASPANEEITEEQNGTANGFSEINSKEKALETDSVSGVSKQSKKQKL
Sequence of EZH2PRC2 mutant Y641N (Q09028 whole entry partner): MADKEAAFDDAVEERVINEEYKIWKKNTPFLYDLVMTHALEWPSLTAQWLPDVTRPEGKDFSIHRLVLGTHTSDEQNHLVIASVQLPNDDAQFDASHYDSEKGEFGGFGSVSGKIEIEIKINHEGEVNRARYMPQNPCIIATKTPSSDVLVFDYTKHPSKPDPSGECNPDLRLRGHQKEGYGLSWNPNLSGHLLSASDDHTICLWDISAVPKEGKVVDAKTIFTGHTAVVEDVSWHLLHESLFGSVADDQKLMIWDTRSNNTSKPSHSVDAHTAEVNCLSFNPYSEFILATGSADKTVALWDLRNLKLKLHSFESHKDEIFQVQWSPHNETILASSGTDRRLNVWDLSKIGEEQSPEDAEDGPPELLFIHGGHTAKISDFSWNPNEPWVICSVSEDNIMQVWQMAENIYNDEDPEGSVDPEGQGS
Sequence of WT EZH2 (EZH2 4 protein complex: EZH2, EED, SUZ12, RbAp48) (Homo sapiens, UniProt O75530+Q09028+Q15022+Q15910) (Q15910 whole entry): as the sequence (Q15910 whole entry Y641N) above, with N641Y counted along it
Sequence of WT EZH2 (EZH2 4 protein complex: EZH2, EED, SUZ12, RbAp48) (Homo sapiens, UniProt O75530+Q09028+Q15022+Q15910) (O75530 whole entry partner): as the sequence (O75530 whole entry partner) above
Sequence of WT EZH2 (EZH2 4 protein complex: EZH2, EED, SUZ12, RbAp48) (Homo sapiens, UniProt O75530+Q09028+Q15022+Q15910) (Q15022 whole entry partner): as the sequence (Q15022 whole entry partner) above
Sequence of WT EZH2 (EZH2 4 protein complex: EZH2, EED, SUZ12, RbAp48) (Homo sapiens, UniProt O75530+Q09028+Q15022+Q15910) (Q09028 whole entry partner): as the sequence (Q09028 whole entry partner) above
Sequence of WT EZH2 (EZH2 4 protein complex: EZH2, EED, SUZ12, RbAp48) (Homo sapiens, UniProt Q15910) (Q15910 whole entry): as the sequence (Q15910 whole entry Y641N) above, with N641Y counted along it
Sequence of WT EZH2 (EZH2 4 protein complex: EZH2, EED, SUZ12, RbAp48) (Homo sapiens, UniProt Q15910) (O75530 whole entry partner): as the sequence (O75530 whole entry partner) above
Sequence of WT EZH2 (EZH2 4 protein complex: EZH2, EED, SUZ12, RbAp48) (Homo sapiens, UniProt Q15910) (Q15022 whole entry partner): as the sequence (Q15022 whole entry partner) above
Sequence of WT EZH2 (EZH2 4 protein complex: EZH2, EED, SUZ12, RbAp48) (Homo sapiens, UniProt Q15910) (Q09028 whole entry partner): as the sequence (Q09028 whole entry partner) above

Row | IC50 [1] | % Effect in WT EZH2 at 20 μM [2] | IC50 [3] | SMILES
1 | 0.45 µM | 94.88% |  | Cc1cc(C)c(CNC(=O)c2cc(Cl)cc(-c3ccnn3C)c2C)c(=O)[nH]1 [Example 5, 5-chloro-N-[(4,6-dimethyl-2-oxo-1,2-dihydropyridin-3-yl)methyl]-2-methyl-3-(1-methyl-1H-pyrazol-5-yl)benzamide]
2 | 0.93 µM | 93.705% |  | Cc1cc(C)c(CNC(=O)c2cc(-c3cnn(C)c3)cc(OC(C)C)c2Cl)c(=O)[nH]1 [Example 26, 2-chloro-N-[(4,6-dimethyl-2-oxo-1,2-dihydropyridin-3-yl)methyl]-3-isopropoxy-5-(1-methyl-1H-pyrazol-4-yl)benzamide]
3 | 0.78 µM | 92.965% |  | Cc1cc(C)c(CNC(=O)c2cc(-c3cnn(C)c3)nc(OC(C)C)c2Cl)c(=O)[nH]1 [Example 33, 3-chloro-N-[(4,6-dimethyl-2-oxo-1,2-dihydropyridin-3-yl)methyl]-2-isopropoxy-6-(1-methyl-1H-pyrazol-4-yl)isonicotinamide]
4 | 0.042 µM |  | 0.35 µM | Cc1cc(C)c(CNC(=O)c2cc(-c3ccc4c(c3)CS(=O)(=O)C4)cc(-c3ccnn3C)c2C)c(=O)[nH]1 [Example 35, N-[(4,6-dimethyl-2-oxo-1,2-dihydropyridin-3-yl)methyl]-5-(2,2-dioxido-1,3-dihydro-2-benzothien-5-yl)-2-methyl-3-(1-methyl-1H-pyrazol-5-yl)benzamide]
5 | 2.08 µM |  | 13 µM | Cc1cc(C)c(CNC(=O)c2nc(Cl)nc(N3CCN(C)C[C@@H]3C)c2C)c(=O)[nH]1 [Example 36, 2-chloro-N-[(4,6-dimethyl-2-oxo-1,2-dihydropyridin-3-yl)methyl]-6-[(2S)-2,4-dimethylpiperazin-1-yl]-5-methylpyrimidine-4-carboxamide]
6 | 1.19 µM |  | 6.25 µM | Cc1cc(C)c(CNC(=O)c2nc(Cl)nc(N3CCOC[C@@H]3C)c2C)c(=O)[nH]1 [Example 37, 2-chloro-N-[(4,6-dimethyl-2-oxo-1,2-dihydropyridin-3-yl)methyl]-5-methyl-6-[(3S)-3-methyl-morpholin-4-yl]pyrimidine-4-carboxamide]
7 | 1.1 µM |  | 7.81 µM | Cc1cc(C)c(CNC(=O)c2nc(Cl)nc(N3CCC[C@@H]3C)c2C)c(=O)[nH]1 [Example 41, 2-chloro-N-[(4,6-dimethyl-2-oxo-1,2-dihydropyridin-3-yl)methyl]-5-methyl-6-[(2S)-2-methylpyrrolidin-1-yl]pyrimidine-4-carboxamide]
8 | 1.63 µM | 93.582% |  | Cc1cc(C)c(CNC(=O)c2cccc(OC(C)C)c2Cl)c(=O)[nH]1 [Example 46, 2-chloro-N-[(4,6-dimethyl-2-oxo-1,2-dihydropyridin-3-yl)methyl]-3-isopropoxy-benzamide]
9 | 1.81 µM |  | 19.8 µM | CCOc1cccc(C(=O)NCc2c(C)cc(C)[nH]c2=O)c1C [Example 48, N-[(4,6-dimethyl-2-oxo-1,2-dihydropyridin-3-yl)methyl]-3-ethoxy-2-methyl-benzamide]
10 | 2.05 µM |  | 26.7 µM | COCc1cc(C)[nH]c(=O)c1CNC(=O)c1cc(Cl)cc(-c2ccnn2C)c1C [Example 50, 5-chloro-N-{[4-(methoxymeth-yl)-6-methyl-2-oxo-1,2-dihydropyridin-3-yl]methyl}-2-methyl-3-(1-methyl-1H-pyrazol-5-yl)benzamide]
11 | 3.98 µM |  | 50.4 µM | COc1cccc(C(=O)NCc2c(C)cc(C)[nH]c2=O)c1C [Example 60, N-[(4,6-dimethyl-2-oxo-1,2-dihydropyridin-3-yl)methyl]-3-methoxy-2-methylbenz-amide]
12 | 4.51 µM | 71.459% |  | Cc1cc(C)c(CNC(=O)c2ccnc(OC(C)C)c2Cl)c(=O)[nH]1 [Example 65, 3-chloro-N-[(4,6-dimethyl-2-oxo-1,2-dihydropyridin-3-yl)methyl]-2-isopropoxyiso-nicotinamide]
13 | 4.88 µM | 76.288% |  | COc1cccc(C(=O)NCc2c(C)cc(C)[nH]c2=O)c1Br [Example 66, 2-bromo-N-[(4,6-dimethyl-2-oxo-1,2-dihydropyridin-3-yl)methyl]-3-methoxybenza-mide]
14 | 4.93 µM |  | 23.5 µM | Cc1cc(C)c(CNC(=O)c2ncnc(N3CCN(C)C[C@@H]3C)c2C)c(=O)[nH]1 [Example 67, N-[(4,6-dimethyl-2-oxo-1,2-dihydropyridin-3-yl)methyl]-6-[(2S)-2,4-dimethylpipera-zin-1-yl]-5-methylpyrimi-dine-4-carboxamide]
15 | 7.03 µM | 69.743% |  | Cc1cc(-c2cc(Cl)cc(C(=O)NCc3c(C)cc(C)[nH]c3=O)c2C)n(C)n1 [Example 77, 5-chloro-N-[(4,6-dimethyl-2-oxo-1,2-dihydropyridin-3-yl)methyl]-3-(1,3-dimethyl-1H-pyrazol-5-yl)-2-methylbenz-amide]
16 | 7.79 µM | 69.830% |  | Cc1cc(C)c(CNC(=O)c2nccc(OC(C)C)c2C)c(=O)[nH]1 [Example 82, N-[(4,6-dimethyl-2-oxo-1,2-dihydropyridin-3-yl)methyl]-4-isopropoxy-3-methylpyridine-2-carboxamide]
17 | 9.12 µM | 69.248% |  | Cc1cc(C)c(CNC(=O)c2ncnc(OC(C)C)c2Cl)c(=O)[nH]1 [Example 85]
18 | 9.38 µM | 64.416% |  | Cc1cc(C)c(CNC(=O)c2c(F)ccc(OC(C)C)c2Cl)c(=O)[nH]1 [Example 86, 2-chloro-N-[(4,6-dimethyl-2-oxo-1,2-dihydropyridin-3-yl)methyl]-6-fluoro-3-isopropoxy-benzamide]
19 | 9.82 µM |  | 34.8 µM | Cc1cc(C)c(CNC(=O)c2nc(N3CCCC3)nc(N3CCC[C@@H]3C)c2C)c(=O)[nH]1 [Example 88, N-[(4,6-dimethyl-2-oxo-1,2-dihydropyridin-3-yl)methyl]-5-methyl-6-[(2S)-2-methylpyrroli-din-1-yl]-2-pyrrolidin-1-ylpyrimidine-4-carboxamide]
20 | 11 µM |  | 82.4 µM | Cc1cc(C)c(CNC(=O)c2ncnc(N3[C@@H](C)COC[C@@H]3C)c2C)c(=O)[nH]1 [Example 89, 6-[(3S,5S)-3,5-dimethylmorph-olin-4-yl]-N-[(4,6-dimethyl-2-oxo-1,2-dihydropyridin-3-yl)methyl]-5-methylpyrimi-dine-4-carboxamide]
21 | 19.8 µM |  | 86 µM | Cc1cc(C)c(CNC(=O)c2ccnc(N3CCC[C@H]3C)c2Cl)c(=O)[nH]1 [Example 106, 3-chloro-N-[(4,6-dimethyl-2-oxo-1,2-dihydropyridin-3-yl)methyl]-2-[(2R)-2-methylpyrrolidin-1-yl]isonicotin-amide]
22 | 178 µM |  | > 200 µM | CCn1ncc(C)c1-c1cccc(C(=O)NCc2c(C)c(Br)c(C)[nH]c2=O)c1C [Example 147, N-[(5-bromo-4,6-dimethyl-2-oxo-1,2-dihydropyridin-3-yl)methyl]-3-(1-ethyl-4-methyl-1H-pyrazol-5-yl)-2-methylbenzamide]
23 | 0.0342 µM |  | 0.198 µM | Cc1cc(C)c(CNC(=O)c2cc(-c3ccc(N4CCN(C)CC4)nc3)cc(-c3ccnn3C)c2C)c(=O)[nH]1 [Example 149, N-[(4,6-dimethyl-2-oxo-1,2-dihydropyridin-3-yl)methyl]-2-methyl-5-[6-(4-methylpiperazin-1-yl)pyridin-3-yl]-3-(1-methyl-1H-pyrazol-5-yl)benzamide]
24 | 0.113 µM |  | 0.679 µM | Cc1cc(C)c(CNC(=O)c2cc(-c3ccc(CN4CCOCC4)cc3)cc(-c3ccnn3C)c2C)c(=O)[nH]1 [Example 150, N-[(4,6-dimethyl-2-oxo-1,2-dihydropyridin-3-yl)methyl]-4-methyl-5-(1-methyl-1H-pyrazol-5-yl)-4′-(morpholin-4-ylmethyl)bi-phenyl-3-carboxamide]
